In the CheMixHub viscosity set:

Assay: xn = mol fraction of the nth substance listed

Cc1ccc(C)cc1 + c1ccccc1
Conditions | viscosity [mPa·s]
293.15 K, 101.33 kPa, x2 = 0.2202 | 0.631
293.15 K, 101.33 kPa, x2 = 0.42 | 0.623
293.15 K, 101.33 kPa, x2 = 0.7393 | 0.627
293.15 K, 101.33 kPa, x2 = 0.8207 | 0.628
298 K, 101.3 kPa, x2 = 0.2099 | 0.603
298 K, 101.3 kPa, x2 = 0.3766 | 0.596
298 K, 101.3 kPa, x2 = 0.5839 | 0.596
298 K, 101.3 kPa, x2 = 0.7205 | 0.596
298 K, 101.3 kPa, x2 = 0.8802 | 0.599
303 K, 101 kPa, x1 = 0.1002 | 0.5613
303 K, 101 kPa, x1 = 0.2018 | 0.5603
303 K, 101 kPa, x1 = 0.3012 | 0.5605
303 K, 101 kPa, x1 = 0.397 | 0.5611
303 K, 101 kPa, x1 = 0.4983 | 0.5617
303 K, 101 kPa, x1 = 0.5959 | 0.5628
303 K, 101 kPa, x1 = 0.7005 | 0.5641
303 K, 101 kPa, x1 = 0.8019 | 0.5666
303 K, 101 kPa, x1 = 0.8988 | 0.5684
303.15 K, 101.33 kPa, x2 = 0.2202 | 0.557
303.15 K, 101.33 kPa, x2 = 0.42 | 0.55
303.15 K, 101.33 kPa, x2 = 0.7393 | 0.55
303.15 K, 101.33 kPa, x2 = 0.8207 | 0.553
313 K, 101 kPa, x1 = 0.1002 | 0.4975
313 K, 101 kPa, x1 = 0.2018 | 0.4982
313 K, 101 kPa, x1 = 0.3012 | 0.4993
313 K, 101 kPa, x1 = 0.397 | 0.502
313 K, 101 kPa, x1 = 0.4983 | 0.5024
313 K, 101 kPa, x1 = 0.5959 | 0.5039
313 K, 101 kPa, x1 = 0.7005 | 0.5071
313 K, 101 kPa, x1 = 0.8019 | 0.509
313 K, 101 kPa, x1 = 0.8988 | 0.5122
313.15 K, 101.33 kPa, x2 = 0.2202 | 0.497
313.15 K, 101.33 kPa, x2 = 0.42 | 0.493
313.15 K, 101.33 kPa, x2 = 0.7393 | 0.49
313.15 K, 101.33 kPa, x2 = 0.8207 | 0.485
318 K, 101.3 kPa, x2 = 0.1977 | 0.4856
318 K, 101.3 kPa, x2 = 0.3756 | 0.4775
318 K, 101.3 kPa, x2 = 0.5821 | 0.4739
318 K, 101.3 kPa, x2 = 0.7212 | 0.472
318 K, 101.3 kPa, x2 = 0.8882 | 0.4718
323 K, 101 kPa, x1 = 0.1002 | 0.4435
323 K, 101 kPa, x1 = 0.2018 | 0.4443
323 K, 101 kPa, x1 = 0.3012 | 0.4462
323 K, 101 kPa, x1 = 0.397 | 0.4502
323 K, 101 kPa, x1 = 0.4983 | 0.4513
323 K, 101 kPa, x1 = 0.5959 | 0.4527
323 K, 101 kPa, x1 = 0.7005 | 0.4554
323 K, 101 kPa, x1 = 0.8019 | 0.4585
323 K, 101 kPa, x1 = 0.8988 | 0.4596
323.15 K, 101.33 kPa, x2 = 0.2202 | 0.45
323.15 K, 101.33 kPa, x2 = 0.42 | 0.447
323.15 K, 101.33 kPa, x2 = 0.7393 | 0.442
323.15 K, 101.33 kPa, x2 = 0.8207 | 0.435

CC(C)CCCC(C)CCCC(C)CCCCC(C)CCCC(C)CCCC(C)C (stereo unspecified) + CCCCCCCCO
Conditions | viscosity [mPa·s]
298.15 K, 101 kPa, x2 = 0.5974 | 13.55

O=Cc1ccccc1 + CCCCCO
viscosity [mPa·s], 101.33 kPa
Conditions | x1 = 0.1001 | x1 = 0.2014 | x1 = 0.3028 | x1 = 0.4151 | x1 = 0.5074 | x1 = 0.599 | x1 = 0.7004 | x1 = 0.8063 | x1 = 0.9052
293.15 K | 3.688 | 3.307 | 2.964 | 2.626 | 2.377 | 2.153 | 1.93 | 1.722 | 1.547
303.15 K | 2.699 | 2.481 | 2.281 | 2.078 | 1.924 | 1.783 | 1.639 | 1.501 | 1.383
313.15 K | 2.149 | 2.007 | 1.874 | 1.737 | 1.632 | 1.534 | 1.432 | 1.334 | 1.247
323.15 K | 1.279 | 1.254 | 1.229 | 1.202 | 1.181 | 1.16 | 1.137 | 1.113 | 1.092

c1ccc(Nc2ccccc2)cc1 + CC(=O)O
323.15 K, 101.33 kPa
Conditions | viscosity [mPa·s]
x1 = 0.1031 | 1.083
x1 = 0.2023 | 1.242
x1 = 0.4039 | 2.267
x1 = 0.5079 | 2.799
x1 = 0.6113 | 3.35
x1 = 0.6724 | 3.714
x1 = 0.7895 | 4.486

CC(=O)OCC[N+](C)(C)C.[Cl-] + CC(=O)CCC(=O)O
101 kPa, x2 = 0.75
Conditions | viscosity [mPa·s]
293.15 K | 164.5
303.15 K | 85.88
313.15 K | 46.75
323.15 K | 31.58

O=Cc1ccccc1 + CCCCO
viscosity [mPa·s], 101.33 kPa
Conditions | x1 = 0.1021 | x1 = 0.2004 | x1 = 0.3089 | x1 = 0.4057 | x1 = 0.4992 | x1 = 0.6014 | x1 = 0.6982 | x1 = 0.8044 | x1 = 0.9027
293.15 K | 2.662 | 2.48 | 2.294 | 2.14 | 2.001 | 1.86 | 1.735 | 1.608 | 1.498
303.15 K | 2.143 | 2.025 | 1.903 | 1.799 | 1.705 | 1.608 | 1.521 | 1.43 | 1.352
313.15 K | 1.62 | 1.563 | 1.503 | 1.451 | 1.403 | 1.352 | 1.305 | 1.256 | 1.212
323.15 K | 1.088 | 1.086 | 1.084 | 1.082 | 1.081 | 1.079 | 1.077 | 1.075 | 1.074

CCc1cccc(CC)c1 + CCCCCCCCCCCC
viscosity [mPa·s], 102 kPa
Conditions | x1 = 0.0991 | x1 = 0.2011 | x1 = 0.2996 | x1 = 0.4004 | x1 = 0.5006 | x1 = 0.5983 | x1 = 0.6998 | x1 = 0.7998 | x1 = 0.9001
293.15 K | 1.4 | 1.31 | 1.23 | 1.16 | 1.09 | 1.03 | 0.971 | 0.927 | 0.885
303.15 K | 1.18 | 1.11 | 1.05 | 1 | 0.94 | 0.9 | 0.852 | 0.811 | 0.778
313.15 K | 1.01 | 0.962 | 0.916 | 0.871 | 0.831 | 0.792 | 0.751 | 0.717 | 0.69
323.15 K | 0.886 | 0.843 | 0.806 | 0.768 | 0.735 | 0.703 | 0.67 | 0.642 | 0.618

Cc1ccc(C)cc1 + CCCCO
Conditions | viscosity [mPa·s]
298.15 K, 101.33 kPa, x2 = 0.1504 | 0.636
298.15 K, 101.33 kPa, x2 = 0.2649 | 0.692
298.15 K, 101.33 kPa, x2 = 0.3971 | 0.797
298.15 K, 101.33 kPa, x2 = 0.5009 | 0.914
298.15 K, 101.33 kPa, x2 = 0.585 | 1.047
298.15 K, 101.33 kPa, x2 = 0.6932 | 1.275
298.15 K, 101.33 kPa, x2 = 0.7688 | 1.493
308.15 K, 101 kPa, x2 = 0.0495 | 0.551
308.15 K, 101 kPa, x2 = 0.1136 | 0.553
308.15 K, 101 kPa, x2 = 0.206 | 0.562
308.15 K, 101 kPa, x2 = 0.3224 | 0.592
308.15 K, 101 kPa, x2 = 0.4051 | 0.647
308.15 K, 101 kPa, x2 = 0.5098 | 0.724
308.15 K, 101 kPa, x2 = 0.6322 | 0.796
308.15 K, 101 kPa, x2 = 0.7241 | 0.937
308.15 K, 101 kPa, x2 = 0.8216 | 1.118
308.15 K, 101 kPa, x2 = 0.9035 | 1.327
308.15 K, 101 kPa, x2 = 0.9621 | 1.619

CCCCCCCCCCCCO + C=CC(=O)OCCCC
viscosity [mPa·s], 101.3 kPa
Conditions | x2 = 0.075 | x2 = 0.2149 | x2 = 0.2782 | x2 = 0.3968 | x2 = 0.5042 | x2 = 0.7015 | x2 = 0.7849 | x2 = 0.8614 | x2 = 0.9327 | x2 = 0.9651
298.15 K | 12.42 | 7.842 | 6.982 | 4.373 | 3.244 | 1.769 | 1.376 | 1.197 | 0.983 | 0.858
308.15 K | 8.748 | 5.789 | 4.807 | 3.38 | 2.459 | 1.409 | 1.135 | 1.004 | 0.86 | 0.732
